Assay results taken from PubChem BioAssay (NCI).
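Cells were grown in 96-well plates and exposed to each compound for 48 hours at five concentrations; endpoints were interpolated linearly between bracketing concentrations, or set to the highest concentration if not reached. GI50 marks 50% less growth. At the TGI there is no net growth.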

Key:
Test in all cases: NCI tumour cell line growth inhibition, 48 h
HOP-92 NSCLC = tested on: HOP-92 NSCLC
SNB-19 CNS = tested on: SNB-19 CNS
A498 renal = tested on: A498 renal
SK-OV-3 ovarian = tested on: SK-OV-3 ovarian
BT-549 breast = tested on: BT-549 breast
RXF 393 renal = tested on: RXF 393 renal
K-562 leukemia = tested on: K-562 leukemia
CAKI-1 renal = tested on: CAKI-1 renal
SW-620 colon = tested on: SW-620 colon
MCF7 breast = tested on: MCF7 breast

SMILES	GI50 (HOP-92 NSCLC)	TGI (HOP-92 NSCLC)	GI50 (SNB-19 CNS)	TGI (SNB-19 CNS)	GI50 (A498 renal)	TGI (A498 renal)	GI50 (SK-OV-3 ovarian)	TGI (SK-OV-3 ovarian)	GI50 (BT-549 breast)	TGI (BT-549 breast)	GI50 (RXF 393 renal)	TGI (RXF 393 renal)	GI50 (K-562 leukemia)	TGI (K-562 leukemia)	GI50 (CAKI-1 renal)	TGI (CAKI-1 renal)	GI50 (SW-620 colon)	TGI (SW-620 colon)	GI50 (MCF7 breast)	TGI (MCF7 breast)
Cc1ccc(Sc2sc(-c3ccccc3)nc2[P+](c2ccccc2)(c2ccccc2)c2ccccc2)cc1	0.186 µM	0.563 µM	0.33 µM	1.33 µM	0.137 µM	0.568 µM	0.282 µM	0.863 µM	0.32 µM	1.18 µM	0.331 µM	1.38 µM	0.257 µM	1.54 µM	0.329 µM	1.04 µM	0.319 µM	1.26 µM		
COc1cc(/C=C(\OC(C)=O)c2ccc3c(c2)OCO3)cc(OC)c1OC		45.4 µM		> 100 µM		71.4 µM		66.8 µM				> 100 µM		> 100 µM		> 100 µM		> 100 µM		
C=C1C[C@@]2(C)C(CC[C@]3(C)C2CC=C2C4CC(C)(C)C[C@@H](OC(=O)/C(C)=C\C)[C@]4(C(=O)O)CC[C@]23C)C(C)(C)C1=O (stereo not given in full)	2.34 µM	7.15 µM	4.65 µM	17.4 µM			14.3 µM	33.4 µM	1.91 µM	3.68 µM	1.76 µM	3.57 µM	2.45 µM	11.5 µM	1.88 µM	4.72 µM	2.74 µM	9.31 µM	4.06 µM	19.2 µM
O=C(CC1C=CCS1(=O)=O)NCc1ccccc1 (stereo not given)		> 100 µM		> 100 µM				> 100 µM		> 100 µM		> 100 µM		> 100 µM		> 100 µM		> 100 µM		> 100 µM
CC(=O)OC1Oc2ccccc2-c2oc(=O)c(-c3cc4ccccc4oc3=O)cc21 (stereo not given)	19.3 µM	45.6 µM	17 µM	32.4 µM	18.8 µM	43.9 µM	13.7 µM	30 µM	18.6 µM	40.1 µM			27.6 µM	> 100 µM	26.9 µM	66.1 µM	65 µM	> 100 µM	15.3 µM	34.1 µM
CCOC(=O)/C(=C\c1ccc[nH]1)C(=O)c1ccccc1		> 100 µM		> 100 µM				> 100 µM				> 100 µM		> 100 µM		> 100 µM		> 100 µM		
CC/C=C/c1cc2cc[nH]c2c2c1C(C)C[C@@H]2C (stereo not given in full)		62.6 µM				32.7 µM		> 100 µM				41.3 µM		65.9 µM		> 100 µM		94.8 µM		
O=C(c1ccc(Cl)cc1)c1ccc(OCCSCCCCCCCCCCSCCOc2ccc(C(=O)c3ccc(Cl)cc3)cc2)cc1		> 100 µM		> 100 µM		> 100 µM		> 100 µM				> 100 µM		> 100 µM		> 100 µM		> 100 µM		
COc1ccc2c(c1)/C(=C/c1cc(OC)c(OC)c(OC)c1)C(=O)N2C	3.01 µM	> 100 µM	3.19 µM	> 27.7 µM	2.5 µM	5.92 µM	3.2 µM	12.5 µM	2.84 µM	> 30.4 µM			1.12 µM	> 46.5 µM	2.41 µM	> 27.4 µM	1.59 µM	8.66 µM	1.83 µM	> 25.8 µM
N#CC1C2CCC3(CC2CCN1C(=O)c1ccccc1)OCCO3 (stereo not given)		> 100 µM		> 100 µM		> 100 µM		> 100 µM				> 100 µM		> 100 µM				> 100 µM		
COc1ccc2c(c1)/C(=N/OC(C)=O)c1c-2c(=O)[nH]c2ccccc12	11.1 µM	38.3 µM	15.3 µM	40.4 µM	7.45 µM	32.4 µM			7.99 µM	24.1 µM			11.3 µM	28.7 µM	11.5 µM	25.6 µM	14.2 µM	30.3 µM	66.3 µM	> 100 µM
N#CC1CC2(C(=O)C1=O)c1ccccc1-c1ccccc12 (stereo not given)				> 100 µM		> 100 µM		> 100 µM				> 100 µM		> 100 µM		> 100 µM		> 100 µM		
c1ccc(COC2(OCc3ccccc3)CC3OC2C2NN=NC32)cc1 (stereo not given)		40.8 µM				> 100 µM		> 100 µM				> 100 µM		38.6 µM		> 100 µM		33.6 µM		
COC1=C(Br)C(=O)C2=C(C1=O)C1C3=C(C(=O)C=CC3=O)C2c2ccccc21 (stereo not given)	2.51 µM	11.6 µM	16.6 µM	43.3 µM			45.6 µM	> 100 µM	16.8 µM	38.3 µM	18.3 µM	37.5 µM	4.66 µM	> 100 µM	15.6 µM	38.4 µM	4.56 µM	> 100 µM	22.7 µM	> 100 µM
COc1cc2c(c(OC)c1OC)-c1ccc(OC)c(=O)cc1[C@@H](N(C)C=O)CC2		0.111 µM		> 100 µM		0.665 µM								> 100 µM		> 100 µM		> 100 µM		
CC(=O)/C=C/c1ccc(C)cc1		> 100 µM		> 100 µM		> 100 µM		> 100 µM				> 100 µM		> 100 µM		> 100 µM		> 100 µM		
C1=Nc2ccccc2C=Nc2ccccc2C=Nc2ccccc2C=Nc2ccccc21.[Cl-].[Pt+2]	19.3 µM	48.7 µM	42.8 µM	> 100 µM	23.2 µM	61.5 µM	24.4 µM	65.9 µM					3.61 µM	93.7 µM	31.4 µM	62.5 µM	27.6 µM	> 100 µM		
O=C(/C=C/c1ccccc1Cl)c1ccc(Cl)cc1Cl		39 µM		28.8 µM		33.3 µM		35.6 µM						11.7 µM		28.4 µM		3.36 µM		
Cc1cc2cn3c4cccnc4[nH]c(=O)c3c2cc1C	1.24 µM	2.65 µM			3.8 µM	18.5 µM	1.8 µM	3.2 µM	12.2 µM	29.4 µM	1.46 µM	2.88 µM			1.42 µM	2.92 µM	1.09 µM	2.47 µM		
